From US7642270B2, “5-oxo-5,8-dihydro-pyrido-pyrimidine as inhibitors of c-fms kinase” (Janssen Pharmaceutica N.V., priority 2005, dated 2010)
Where two headings read alike, the source gives them in different places.

What was measured:
[1] = target: CSF-1R (Homo sapiens, UniProt P07333); experiment: Peptide (non-phosphorylated) assay: fluorescence polarization competition immunoassay of CSF-1R phosphorylation of synthetic CSF-1R555-568 peptide; format: biochemical; conditions: 0.7 nM CSF-1R, 308 μM […], 1 mM ATP, 5 mM MgCl2, 80 min room temperature; mean of at least three determinations; read-out: c-fms Peptide IC50
CSF-1R, sequence (P07333 20-972): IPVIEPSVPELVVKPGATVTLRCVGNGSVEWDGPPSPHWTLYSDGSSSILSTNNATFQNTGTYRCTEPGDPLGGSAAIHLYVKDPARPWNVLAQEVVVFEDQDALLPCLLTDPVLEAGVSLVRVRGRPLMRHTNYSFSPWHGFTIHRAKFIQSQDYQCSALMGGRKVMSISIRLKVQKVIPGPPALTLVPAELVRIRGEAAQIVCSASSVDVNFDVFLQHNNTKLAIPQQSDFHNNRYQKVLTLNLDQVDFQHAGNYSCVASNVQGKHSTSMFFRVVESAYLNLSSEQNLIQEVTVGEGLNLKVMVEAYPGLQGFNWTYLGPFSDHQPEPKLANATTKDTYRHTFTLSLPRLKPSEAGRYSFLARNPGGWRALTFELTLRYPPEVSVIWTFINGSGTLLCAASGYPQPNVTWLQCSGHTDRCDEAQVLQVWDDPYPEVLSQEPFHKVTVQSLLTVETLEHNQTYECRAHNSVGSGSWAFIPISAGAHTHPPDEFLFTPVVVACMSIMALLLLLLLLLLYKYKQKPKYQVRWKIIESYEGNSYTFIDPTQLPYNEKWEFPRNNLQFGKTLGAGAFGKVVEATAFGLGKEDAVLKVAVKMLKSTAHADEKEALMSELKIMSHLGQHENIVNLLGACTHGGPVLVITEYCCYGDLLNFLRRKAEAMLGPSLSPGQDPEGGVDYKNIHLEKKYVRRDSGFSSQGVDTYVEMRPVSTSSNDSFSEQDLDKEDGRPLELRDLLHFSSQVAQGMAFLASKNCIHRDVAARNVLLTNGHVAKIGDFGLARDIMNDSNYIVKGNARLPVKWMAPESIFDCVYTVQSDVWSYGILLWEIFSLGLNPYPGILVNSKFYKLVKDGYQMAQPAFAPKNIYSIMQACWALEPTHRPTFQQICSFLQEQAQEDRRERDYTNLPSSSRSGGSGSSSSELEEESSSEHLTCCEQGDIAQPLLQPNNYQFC
Experimental: Peptide (Non-Phosphorylated) Assay
The kinase reaction was initiated by adding 1 μL of 10 mM ATP in assay buffer. […] Positive and negative control wells were included on each plate, where 4% DMSO in assay buffer was substituted for the compound; in addition, positive control wells received 1.2 μL of 50 mM EDTA before the start of the reaction.
The plates were covered and incubated at room temperature for 80 min. Reactions were stopped by addition of 1.2 μL of 50 mM EDTA. Each well then received 10 μL of a 1:1:3 mixture of 10× anti-phosphotyrosine antibody, 10×PTK green tracer, and FP dilution buffer, respectively (Cat. # P2837, Invitrogen, Carlsbad, Calif.). The plates were covered, incubated for 30 min at room temperature, and the fluorescence polarization was read on an Analyst plate reader (Molecular Devices).

[2] = target: c-fms (Homo sapiens, UniProt P07333); experiment: c-fms autophosphorylation, fluorescence polarization competition immunoassay; format: biochemical
c-fms, sequence (P07333 20-972): as above
Experimental: Autophosphorylation, Fluorescence Polarization Competition Immunoassay
The assay buffer used was 100 mM 4-(2-hydroxyethyl)piperazine 1-ethanesulfonic acid (HEPES), pH 7.5, 1 mM 1,4-dithio-DL-threitol (DTT), 0.01% (v/v) Tween-20. Compounds were diluted in assay buffer containing 4% dimethylsulfoxide (DMSO) just prior to the assay. […] The kinase reaction was initiated by adding 2 μL of 5 mM ATP (Sigma) in assay buffer. The final concentrations in the assay were 10 nM c-fms, 1 mM ATP, 5 mM MgCl2, 2% DMSO. Control reactions were ran in each plate: in positive and negative control wells, assay buffer (made 4% in DMSO) was substituted for the compound; in addition, positive control wells received 1.2 μL of 50 mM ethylenediaminetetraaceticacid (EDTA).
The plates were incubated at room temperature for 45 min. At the end of the incubation, the reaction was quenched with 1.2 μL of 50 mM EDTA (EDTA was not added to the positive control wells at this point; see above). Following a 5-min incubation, each well received 10 μL of a 1:1:3 mixture of anti-phosphotyrosine antibody, 10×, PTK green tracer, 10× (vortexed), FP dilution buffer, respectively (all from PanVera, cat. # P2837). The plate was covered, incubated for 30 min at room temperature and the fluorescence polarization was read on the Analyst.
The IC50 values shown in Table 1 are averages of three independent measurements.

[3] = 10 nM c-fms, 1 mM ATP, 5 mM MgCl2, 45 min room temperature, averages of three independent measurements, read-out: c-fms Autophosphorylation IC50

IC50 [1] [nM] | IC50 [2, 3] [nM] | IC50 [2] [nM] | Compound
0.49 | 8 |  | NC(=O)c1cn(-c2ccc3c(c2)CCC3)c2nc(Nc3ccc(C4CCNCC4)cc3)ncc2c1=O [Cpd 49, 8-Indan-5-yl-5-oxo-2-(4-piperidin-4-yl-phenylamino)-5,8-dihydro-pyrido[2,3-d]pyrimidine-6-carboxylic acid amide]
0.58 |  |  | CC1CN(c2ccc(Nc3ncc4c(=O)c(C(N)=O)cn(-c5ccc6c(c5)CCC6)c4n3)cc2)CC(C)N1 (stereo not shown) [Cpd 43, 2-[4-(3,5-Dimethyl-piperazin-1-yl)-phenylamino]-8-indan-5-yl-5-oxo-5,8-dihydro-pyrido[2,3-d]pyrimidine-6-carboxylic acid amide]
1.1 | 11 |  | CCNC(=O)c1cn(-c2ccc3c(c2)CCC3)c2nc(Nc3cccc(N4CCNCC4)c3)ncc2c1=O [Cpd 54, 8-Indan-5-yl-5-oxo-2-(3-piperazin-1-yl-phenylamino)-5,8-dihydro-pyrido[2,3-d]pyrimidine-6-carboxylic acid ethyl amide]
 | 9 |  | CNC(=O)c1cn(-c2ccc3c(c2)CCC3)c2nc(Nc3cccc(N4CCN(C)CC4)c3)ncc2c1=O [Cpd 38, 8-indan-5-yl-2-[3-(4-methyl-piperazin-1-yl)-phenylamino]-5-oxo-5,8-dihydro-pyrido[2,3-d]pyrimidine-6-carboxylic acid methyl amide]
 |  | 18 | NC(=O)c1cn(-c2ccc3c(c2)CCC3)c2nc(Nc3ccc(CN4CCOCC4)cc3)ncc2c1=O [Cpd 69, 8-Indan-5-yl-2-(4-morpholin-4-ylmethyl-phenylamino)-5-oxo-5,8-dihydro-pyrido[2,3-d]pyrimidine-6-carboxylic acid amide]
 | 150 |  | CNC(=O)c1cn(-c2ccc3c(c2)CCC3)c2nc(Nc3cccc(CN(C)C)c3)ncc2c1=O [Cpd 77, 2-(3-Dimethylaminomethyl-phenylamino)-8-indan-5-yl-5-oxo-5,8-dihydro-pyrido[2,3-d]pyrimidine-6-carboxylic acid methylamide]
 | 160 |  | CNC(=O)c1cn(C2CCCCC2)c2nc(Nc3ccc(N4CCN(C)CC4)cc3)ncc2c1=O [Cpd 61, 8-Cyclohexyl-2-[4-(4-methyl-piperazin-1-yl)-phenylamino]-5-oxo-5,8-dihydro-pyrido[2,3-d]pyrimidine-6-carboxylic acid methyl amide]
 | 18 |  | CN(C)Cc1cccc(Nc2ncc3c(=O)c(C(N)=O)cn(-c4ccc5c(c4)CCC5)c3n2)c1 [Cpd 76, 2-(3-Dimethylaminomethyl-phenylamino)-8-indan-5-yl-5-oxo-5,8-dihydro-pyrido[2,3-d]pyrimidine-6-carboxylic acid amide]
 | 12 |  | CCNC(=O)c1cn(-c2ccc3c(c2)CCC3)c2nc(Nc3ccc(N4CC(C)NC(C)C4)cc3)ncc2c1=O (stereo not shown) [Cpd 45, 2-[4-(3,5-Dimethyl-piperazin-1-yl)-phenylamino]-8-indan-5-yl-5-oxo-5,8-dihydro-pyrido[2,3-d]pyrimidine-6-carboxylic acid ethyl amide]
 | 12 |  | NC(=O)c1cn(-c2ccc3c(c2)CCC3)c2nc(Nc3ccc(C[C@H]4COC(=O)N4)cc3)ncc2c1=O [Cpd 30, (4S)-8-Indan-5-yl-5-oxo-2-[4-(2-oxo-oxazolidin-4-ylmethyl)-phenylamino]-5,8-dihydro-pyrido[2,3-d]pyrimidine-6-carboxylic acid amide]
 | 13 |  | CCNC(=O)c1cn(-c2ccc3c(c2)CCC3)c2nc(Nc3cccc(N4CCN(C)CC4)c3)ncc2c1=O [Cpd 39, 8-Indan-5-yl-2-[3-(4-methyl-piperazin-1-yl)-phenylamino]-5-oxo-5,8-dihydro-pyrido[2,3-d]pyrimidine-6-carboxylic acid ethyl amide]
 | > 1000 |  | CN1CCN(CC(=O)N2CCC(c3cccc(Nc4ncc5c(=O)c(C(N)=O)cn(-c6ccc7c(c6)CCC7)c5n4)c3)CC2)CC1 [Cpd 73, 8-Indan-5-yl-2-(3-{1-[2-(4-methyl-piperazin-1-yl)-acetyl]-piperidin-4-yl}-phenylamino)-5-oxo-5,8-dihydro-pyrido[2,3-d]pyrimidine-6-carboxylic acid amide]
 | 50 |  | CNC(=O)c1cn(C2CCCCC2)c2nc(Nc3cccc(N4CCN(C)CC4)c3)ncc2c1=O [Cpd 64, 8-Cyclohexyl-2-[3-(4-methyl-piperazin-1-yl)-phenylamino]-5-oxo-5,8-dihydro-pyrido[2,3-d]pyrimidine-6-carboxylic acid methyl amide]

Continued, molecule first:

Compound | IC50 [1] [nM] | IC50 [2, 3] [nM] | IC50 [2] [nM]
CNC(=O)c1cn(-c2ccc3c(c2)CCC3)c2nc(Nc3ccc(CCN4CCOCC4)cc3)ncc2c1=O [Cpd 28, 8-Indan-5-yl-2-[4-(2-morpholin-4-yl-ethyl)-phenylamino]-5-oxo-5,8-dihydro-pyrido[2,3-d]pyrimidine-6-carboxylic acid methyl amide] | 1.6 | 30 | 
NC(=O)c1cn(-c2ccc3c(c2)CCC3)c2nc(Nc3ccc(CCN4CCOCC4)cc3)ncc2c1=O [Cpd 27, 8-Indan-5-yl-2-[4-(2-morpholin-4-yl-ethyl)-phenylamino]-5-oxo-5,8-dihydro-pyrido[2,3-d]pyrimidine-6-carboxylic acid amide] |  | 10 | 
CN(C)c1ccc(Nc2ncc3c(=O)c(C(N)=O)cn(-c4ccc5c(c4)CCC5)c3n2)cc1 [Cpd 15, 2-(4-Dimethylamino-phenylamino)-8-indan-5-yl-5-oxo-5,8-dihydro-pyrido[2,3-d]pyrimidine-6-carboxylic acid amide] |  | 70 | 
CN1CCN(c2ccc(Nc3ncc4c(=O)c(C(N)=O)cn(-c5ccc6c(c5)CCC6)c4n3)c(O)c2)CC1 [Cpd 25, 2-[2-Hydroxy-4-(4-methyl-piperazin-1-yl)-phenylamino]-8-indan-5-yl-5-oxo-5,8-dihydro-pyrido[2,3-d]pyrimidine-6-carboxylic acid amide] |  | 93 | 
CCOC(=O)c1cn(-c2ccc3c(c2)CCC3)c2nc(Nc3ccc(N4CCN(C)CC4)cc3)ncc2c1=O [Cpd 1, 8-Indan-5-yl-2-[4-(4-methyl-piperazin-1-yl)-phenylamino]-5-oxo-5,8-dihydro-pyrido[2,3-d]pyrimidine-6-carboxylic acid ethyl ester] |  | 280 | 
CN1CCN(c2ccc(Nc3ncc4c(=O)c(C(N)=O)cn(-c5ccccc5)c4n3)cc2)CC1 [Cpd 13, 2-[4-(4-Methyl-piperazin-1-yl)-phenylamino]-5-oxo-8-phenyl-5,8-dihydro-pyrido[2,3-d]pyrimidine-6-carboxylic acid amide] |  | 730 | 
NC(=O)c1cn(-c2ccc3c(c2)CCC3)c2nc(Nc3cccc(CN4CCOCC4)c3)ncc2c1=O [Cpd 24, 8-Indan-5-yl-2-(3-morpholin-4-ylmethyl-phenylamino)-5-oxo-5,8-dihydro-pyrido[2,3-d]pyrimidine-6-carboxylic acid amide] |  | 18 | 
CN1CCN(c2ccc(Nc3ncc4c(=O)c(C(=O)O)cn(-c5ccc6c(c5)CCC6)c4n3)cc2)CC1 [Cpd 6, 8-Indan-5-yl-2-[4-(4-methyl-piperazin-1-yl)-phenylamino]-5-oxo-5,8-dihydro-pyrido[2,3-d]pyrimidine-6-carboxylic acid] |  | 1100 | 
CCOC(=O)c1cn(C2CCCCC2)c2nc(Nc3ccc(N4CCN(C)CC4)cc3)ncc2c1=O [Cpd 17, 8-Cyclohexyl-2-[4-(4-methyl-piperazin-1-yl)-phenylamino]-5-oxo-5,8-dihydro-pyrido[2,3-d]pyrimidine-6-carboxylic acid ethyl ester] |  | 1700 | 
CCOC(=O)c1cn(-c2ccc3c(c2)CCC3)c2nc(Nc3ccc(OCC(O)CN(C)C)cc3)ncc2c1=O (stereo not shown) [Cpd 2, 2-[4-(3-Dimethylamino-2-hydroxy-propoxy)-phenylamino]-8-indan-5-yl-5-oxo-5,8-dihydro-pyrido[2,3-d]pyrimidine-6-carboxylic acid ethyl ester] |  | 440 | 
CCNC(=O)c1cn(-c2ccc3c(c2)CCC3)c2nc(Nc3ccc(N4CCN(C)CC4)cc3)ncc2c1=O [Cpd 9, 8-indan-5-yl-2-[4-(4-methyl-piperazin-1-yl)-phenylamino]-5-oxo-5,8-dihydro-pyrido[2,3-d]pyrimidine-6-carboxylic acid ethylamide] |  | 68 | 
CCNC(=O)c1cn(-c2ccc3c(c2)CCC3)c2nc(Nc3ccc(OCC(O)CN(C)C)cc3)ncc2c1=O (stereo not shown) [Cpd 12, 2-[4-(3-Dimethylamino-2-hydroxy-propoxy)-phenylamino]-8-indan-5-yl-5-oxo-5,8-dihydro-pyrido[2,3-d]pyrimidine-6-carboxylic acid ethylamide] |  | 77 | 
